According to EP1149104B1, “PYRROLOBENZODIAZEPINE CARBOXYAMIDE VASOPRESSIN AGONISTS” (Wyeth, priority 1999, dated 2000):

System: vasopressin V2 receptors
Assay: Vasopressin V2 agonist effects in normal conscious water-loaded rats
Type: in vivo
Details: oral dose of 10 mg/Kg, urine collected for four hours, Sprague-Dawley (CD) rats; for Changes in Urinary Osmolality: osmolality changes expressed as percent of control; for Urine Volume (% decrease): percent decrease in urine volume vs. control
Description: Vasopressin V2 Agonist Effects of Test Compounds in Normal Conscious Water-Loaded Rats:
Male or female normotensive Sprague-Dawley rats (Charles River Laboratories, Inc., Kingston, NY) of 350-500 g body weight were supplied with standard rodent diet (Purina Rodent Lab. Chow 5001) and water ad libitum. On the day of test, rats were placed individually into metabolic cages equipped with devices to separate the feces from the urine and containers for collection of urine. A test compound or a reference agent was given at an oral dose of 10 mg/Kg in a volume of 10 mL/Kg. The vehicle used was 20% dimethylsulfoxide (DMSO) in 2.5% preboiled corn starch. Thirty minutes after dosing the test compound, rats were gavaged with water at 30 mL/Kg into the stomach using a feeding needle. During the test, rats were not provided with water or food. Urine was collected for four hours after dosing of the test compound. At the end of four hours, urine volume was measured. Urinary osmolality was determined using a Fiske One-Ten Osmometer (Fiske Associates, Norwood, MA, 02062) or an Advanced CRYOMATIC Osmometer, Model 3C2 (Advanced Instruments, Norwood, MA). Determinations of Na^+, K^+- and Cl^- ion were carried out using ion specific electrodes in a Beckman SYNCHRON EL-ISE Electrolyte System analyzer. The urinary osmolality should increase proportionally. In the screening test, two rats were used for each compound. If the difference in the urine volume of the two rats was greater than 50%, a third rat was used.

| Structure (SMILES) | Changes in Urinary Osmolality | Urine Volume (% decrease) |
| --- | --- | --- |
| O=C(c1ccc2c(c1)CCO2)N1Cc2cccn2Cc2ccccc21 [Example 3, (2,3-Dihydro-benzofuran-5-yl)-(5H-10,11-dihydro-pyrrolo[2,1-c][1,4]benzodiazepin-10-yl)-methanone] | 10% of control | 32 % decrease |
| O=C(c1ccc2c(c1)OCO2)N1Cc2cccn2Cc2ccccc21 [Example 2, Benzo[1,3]dioxol-5-yl-(5H-10,11-dihydro-pyrrolo [2,1-c][1-4]benzodiazepin-10-yl)-methanone] | 41% of control | 23 % decrease |
| O=C(c1ccc2ncsc2c1)N1Cc2cccn2Cc2ccccc21 [Example 4, (Benzothiazol-6-yl)-(5H-10,11-dihydro-pyrrolo[2,1-c][1,4]benzodiazepin-10-yl)-methanone] | 3% of control | 19 % decrease |
| Cn1ccc2cc(C(=O)N3Cc4cccn4Cc4ccccc43)ccc21 [Example 1, (5H-10,11-Dihydro-pyrrolo [2,1-c][1,4]benzodiazepin-10-yl)-(1-methyl-1H-indol-5-yl)-methanone] | 174% of control | 66 % decrease |
